This is an account of results in patent publication US12180187B2, “1-phenyl-5-azinylpyrazolyl-3-oxyalkyl acids and their use for controlling unwanted plant growth” (BAYER AKTIENGESELLSCHAFT, priority 2019, dated 2024).

The subject of test [1] is LOLRI. In words: Pre-emergence action against LOLRI, 1280 g/ha. In kind it is in vivo, Lolium rigidum. Conditions: Lolium rigidum, 504 h, visual scoring after about 3 weeks vs untreated controls, 100% = plants have died, 0% = like control plants. The method in brief:
(§1)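 Weed seeds sown in sandy loam in pots, covered with soil; compound as WP or EC applied to soil surface as aqueous suspension/emulsion with 0.5% additive at 600 L/ha water. Greenhouse, good growth conditions; visual % damage vs untreated controls after about 3 weeks (100% = plants dead, 0% = like control).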

The test system of a further test is VERPE. As to the kind of experiment: Pre-emergence action against VERPE, 1280 g/ha. The test is classed as in vivo, Veronica persica. Particulars: scored visually after about 3 weeks vs untreated controls (100% = plants have died); for pest or weed control at 1280 g/ha: Veronica persica, 504 h. A digest of the protocol: as §1
In another test the test system is ECHGC. In words: Pre-emergence action at 320 g/ha against ECHGC. In kind it is in vivo, Echinochloa crus-galli. Particulars: visual scoring after about 3 weeks vs untreated controls. A digest of the protocol:
(§2)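 Visual scoring in percent against untreated controls, about 3 weeks after treatment, where 100% means dead plants and 0% means no difference. Compounds were applied as aqueous suspension or emulsion (WP or EC, plus 0.5% additive) onto soil covering freshly sown seeds, at 600 l/ha water.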

For test [2], the system named is LOLRI. As to the kind of experiment: Pre-emergence action at 320 g/ha against LOLRI. The test is classed as in vivo, Lolium rigidum. Particulars: Lolium rigidum, 504 h, visual scoring after about 3 weeks vs untreated controls. The method in brief:
as §2

Test [3] relates to STEME. As to the kind of experiment: Pre-emergence action at 320 g/ha against STEME. In kind it is in vivo, Stellaria media. Particulars: greenhouse, scored visually after about 3 weeks vs untreated controls, 100% = plants have died, 0% = like control plants. An excerpt: (§3) b) Seeds of monocotyledonous and dicotyledonous weed plants and crop plants are placed in plastic or organic planting pots and covered with soil. The compounds of the invention, formulated in the form of wettable powders (WP) or as emulsion concentrates (EC), are then applied onto the surface of the covering soil as aqueous suspension or emulsion with addition of 0.5% additive at a water application rate of 600 l/ha (converted). After the treatment, the pots are placed in a greenhouse and kept under good growth conditions for the trial plants. After about 3 weeks, the effect of the preparations is scored visually in comparison with untreated controls as percentages. For example, 100% activity=the plants have died, 0% activity=like control plants. Tables 13 to 26 below show the effects of selected compounds of the general formula (I) on various harmful plants and at an application rate corresponding to 320 g/ha, which were obtained by the experimental procedure mentioned above.

The subject of test [4] is HORMU. As to the kind of experiment: Pre-emergence action at 320 g/ha against HORMU. Particulars: greenhouse, scored visually after about 3 weeks vs untreated controls, 100% = plants have died, 0% = like control plants. The test is classed as in vivo, Hordeum murinum.
From the text: as §3

Another test has as its system ECHCG. In words: Post-emergence action against ECHCG, 1.28 kg/ha. The test is classed as in vivo, Echinochloa crus-galli. Conditions: dosage 1280 g/ha, visual rating about 3 weeks after treatment vs untreated controls; for pest or weed control at 1280 g/ha: Echinochloa crus-galli, 504 h. A digest of the protocol: (§4)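 Spray at one-leaf stage with WP/EC + 0.5% additive, 600 L water/ha. Greenhouse, optimum conditions, ~3 wk. Visual % control vs untreated; 0 = no effect, 100 = dead.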

Test [5] deals with STEME. As to the kind of experiment: Post-emergence action against STEME, 1.28 kg/ha. In kind it is in vivo, Stellaria media. Conditions: dosage 1280 g/ha, visual rating about 3 weeks after treatment vs untreated controls (100% = plants died). A digest of the protocol: as §4
Test [6] relates to ABUTH. As to the kind of experiment: Post-emergence action at 320 g/ha against ABUTH. The test is classed as in vivo, Abutilon theophrasti. Particulars: visual rating about 3 weeks after treatment vs untreated controls. A digest of the protocol: (§5)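 Greenhouse pot plants in sandy loam received a foliar spray of WP- or EC-formulated compound at the one-leaf stage. Percent activity against untreated controls was assessed visually around three weeks later.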

The subject of a further test is AVEFA. As to the kind of experiment: Post-emergence action at 320 g/ha against AVEFA. In kind it is in vivo. Particulars: visual rating about 3 weeks after treatment vs untreated controls; for pest or weed control at 320 g/ha: Avena fatua, 504 h. A digest of the protocol:
as §5

The subject of test [7] is HORMU. As to the kind of experiment: Post-emergence action at 320 g/ha against HORMU. The test is classed as in vivo, Hordeum murinum. Particulars: visual rating about 3 weeks after treatment vs untreated controls. The text has this:
Accordingly, the compounds of the invention have good herbicidal action against a broad spectrum of weed grasses and broad-leaved weeds and are therefore suitable for controlling unwanted vegetation by the post-emergence method. • b) Seeds of monocotyledonous and dicotyledonous weeds and crop plants are placed in sandy loam in plastic or organic planting pots, covered with soil and cultivated in a greenhouse under controlled growth conditions. 2 to 3 weeks after sowing, the test plants are treated at the one-leaf stage. The compounds of the invention, formulated in the form of wettable powders (WP) or as emulsion concentrates (EC), are then sprayed onto the green parts of the plants as aqueous suspension or emulsion with addition of 0.5% additive at a water application rate of 600 l/ha (converted). After the test plants have been kept in the greenhouse under optimum growth conditions for about 3 weeks, the activity of the preparations is rated visually in comparison to untreated controls. For example, 100% activity=the plants have died, 0% activity=like control plants. Tables 39 to 49 below show the effects of selected compounds of the general formula (I) according to Tables 1 and 2 on various harmful plants and at an application rate corresponding to 320 g/ha, which were obtained by the experimental procedure mentioned above.

The test system of test [8] is ABUTH. As to the kind of experiment: Pre-emergence action at 320 g/ha against ABUTH. In kind it is in vivo, Abutilon theophrasti. Particulars: greenhouse, scored visually after about 3 weeks vs untreated controls, 100% = plants have died, 0% = like control plants. A digest of the protocol: as §2
The next test deals with PHBPU. In words: Pre-emergence action at 320 g/ha against PHBPU. In kind it is in vivo. Conditions: visual scoring after about 3 weeks vs untreated controls. A digest of the protocol:
as §2

The test system of test [9] is ABUTH. In words: Post-emergence action against ABUTH, 1.28 kg/ha. The test is classed as in vivo, Abutilon theophrasti. Particulars: dosage 1280 g/ha, visual rating about 3 weeks after treatment vs untreated controls (100% = plants died). The method in brief: as §4
A further test has as its system SETVI. In words: Post-emergence action at 320 g/ha against SETVI. The test is classed as in vivo, Setaria viridis. Conditions: visual rating about 3 weeks after treatment vs untreated controls. The method in brief: as §5
The next test has as its system ALOMY. As to the kind of experiment: Post-emergence action against ALOMY, 1.28 kg/ha. In kind it is in vivo, Alopecurus myosuroides. Conditions: dosage 1280 g/ha, visual rating about 3 weeks after treatment vs untreated controls. A digest of the protocol: as §4

Turning to `COC(=O)C(C)Oc1nn(-c2ccccc2)c(-c2ccc(F)nc2)c1Cl` (stereo not drawn) [VII-023, Methyl 2-{[4-chloro-5-(6-fluoropyridin-3-yl)-1-phenyl-1H-pyrazol-3-yl]oxy}propanoate], the pest or weed control at 1280 g/ha with LOLRI [1] was found to be 100%; in the test on VERPE, 100%; with ECHCG, 90%. The “Pre-emergence action against ECHGC in %” value in the test with ECHGC is given as 90%. Moreover, the pest or weed control at 320 g/ha turned out to be 100% with LOLRI [2] and 80% with AVEFA. For the same molecule, the “Pre-emergence action at 320 g/ha against STEME in %” value with STEME [3] was found to be 90%. In addition, in the test on HORMU [4], the “Pre-emergence action at 320 g/ha against HORMU in %” value is listed as 100%. Moreover, in the test with STEME [5], the “Post-emergence action against STEME” value is given as 100%. Also, the “Post-emergence action against ABUTH in %” value in the test on ABUTH [6] amounted to 90%. Moreover, the “Post-emergence action against HORMU in %” value in the test with HORMU [7] is on record as 90%.

`COC(=O)COc1nn(-c2ccc(F)cc2)c(-c2cccnc2)c1Br` [VII-028]: the “Pre-emergence action against VERPE” value in the test on VERPE is given as 90%. Further, the “Pre-emergence action against ECHGC in %” value in the test with ECHGC is 80%. In addition, in the test with ABUTH [8], the “Pre-emergence action at 320 g/ha against ABUTH in %” value is 90%. Besides, the “Pre-emergence action against PHBPU in %” value in the test on PHBPU is 100%. In addition, in the test with STEME [3], the “Pre-emergence action at 320 g/ha against STEME in %” value is 90%. Further, the “Post-emergence action against ECHCG” value in the test on ECHCG is 90%. Further, the “Post-emergence action against ABUTH” value in the test on ABUTH [9] amounted to 90%. For the same molecule, the “Post-emergence action against STEME” value in the test on STEME [5] is given as 100%. Further, in the test on ABUTH [6], the “Post-emergence action against ABUTH in %” value was 80%. For the same molecule, the “Post-emergence action against SETVI in %” value in the test on SETVI is 80%. The “Post-emergence action against AVEFA in %” value in the test with AVEFA was 80%. In the test on HORMU [7], the “Post-emergence action against HORMU in %” value amounted to 80%.

`CCOC(=O)COc1nn(-c2ccccc2F)c(-c2ccnc(F)c2)c1Br` [VIII-003, Ethyl {[4-bromo-1-(2-fluorophenyl)-5-(2-fluoropyridin-4-yl)-1H-pyrazol-3-yl]oxy}acetate]: the results for the pest or weed control at 1280 g/ha with LOLRI [1], with VERPE and in the test on ECHCG were 90%, 90% and 100%, respectively. In addition, the “Pre-emergence action against ECHGC in %” value with ECHGC turned out to be 90%. For the same molecule, the pest or weed control at 320 g/ha in the test on LOLRI [2] and in the test on AVEFA was 90% in each case. The “Pre-emergence action at 320 g/ha against STEME in %” value in the test with STEME [3] worked out at 80%. The “Pre-emergence action at 320 g/ha against HORMU in %” value in the test on HORMU [4] came to 90%. The “Post-emergence action against ABUTH” value in the test on ABUTH [9] is 90%. Further, the “Post-emergence action against STEME” value in the test on STEME [5] is reported as 100%.

For `O=C(O)COc1nn(-c2ccccc2F)c(-c2cncnc2)c1Br` [VI-007, {[4-Bromo-1-(2-fluorophenyl)-5-(pyrimidin-5-yl)-1H-pyrazol-3-yl]oxy}acetic Acid], the pest or weed control at 1280 g/ha in the test on LOLRI [1] came to 100%; with VERPE, 90%; in the test with ECHCG, 100%. The pest or weed control at 320 g/ha in the test with LOLRI [2] and in the test with AVEFA was 100% in each case. Moreover, the “Pre-emergence action against PHBPU in %” value in the test with PHBPU is listed as 90%. Further, the “Pre-emergence action at 320 g/ha against STEME in %” value in the test with STEME [3] is listed as 100%. Besides, the “Pre-emergence action at 320 g/ha against HORMU in %” value in the test with HORMU [4] worked out at 100%. In the test with ALOMY, the “Post-emergence action against ALOMY” value is 90%. Besides, the “Post-emergence action against STEME” value with STEME [5] is given as 100%. For the same molecule, the “Post-emergence action against ABUTH in %” value with ABUTH [6] amounted to 90%. For the same molecule, the “Post-emergence action against HORMU in %” value in the test with HORMU [7] was determined as 90%.
